# Test results from patent publication US7781565B2 (priority 2006, dated 2010).
# Entries after “also recorded” stand apart in the source; their conditions may differ.
# Tested on: NCI-60 cell lines
# Type: cell-based, human
Substance,Cell Line (NCI-60 cell line the peptide and its motif are associated with),Cell Line (NCI-60 cell line the peptide is associated with),Cell Line with which the peptide (and its tripeptide motif) is associated,Cell Line the peptide is associated with (peptide recovered from phage library selection on this NCI-60 cell line)
YAGSGQL,OVCAR-8 Ovarian,,,
YATLGSS,PC3 Prostate,,,
YDGLVSG,,COLO-205-Colon,,
YDGRLAR,,SNB-19 CNS; also recorded: SF-539 CNS,,
YFRARGS,786-0 Renal,,,
YGALAGL,PC3 Prostate,,,
YGESLLR,,SNB-75 CNS,,
YGIGVRL,,,H23-Lung,
YGLRSLV,,,,BT-549 Breast
YGQYGGL,,HCT-15 Colon,,
YGSGGRG,,HT-29 Colon,,
YGSVALR,,H522-Lung,,
YGVSRLL,DU-145 Prostate,,,
YLAGGKA,IGROV1 Ovarian,,,
YLGLGGL,DU-145 Prostate,,,
YLGRRVS,,SW620-Colon,,
YLLRALG,,SF-268 CNS,,
YLRSAGM,PC3 Prostate,,,
YMYHGRV,OVCAR-4 Ovarian,,,

Substance,Cell Line (NCI-60 cell line the peptide and its motif are associated with),Cell Line (NCI-60 cell line the peptide is associated with),Cell Line with which the peptide (and its tripeptide motif) is associated,Cell Line the peptide is associated with (peptide recovered from phage library selection on this NCI-60 cell line)
YNRSAGL,,,CCRF-CEM Leukemia,
YRALAGG,,,,MDA-MB-435-Breast
YRGSMVG,,COLO-205-Colon,,
YRGSSGK,,,RPMI-8226-Leukemia,
YRVSSGS,,SNB-75 CNS,,
YSGRLVM,,SNB-75 CNS,,
YSGSSDF,,COLO-205-Colon,,
YSIMRVS,,SF-295 CNS,,
YSQRSSL,,,Hop-62-Lung,
YTGSSPS,SK-OV-3-3 Ovarian,,,
YVGGRLR,OVCAR-5 Ovarian,,,
YVGLVVS,,,SR Leukemia,
YVRIGRV,,HCT-15 Colon,,
YWFIGLG,,,EKVX-Lung,
YWGGSVP,,,,UO31 Renal
YWQHRVS,,HCT-116 Colon,,
YYAGGLK,,,Hop-62-Lung,
YYGERSS,OVCAR-5 Ovarian,,,
